From ChEMBL document CHEMBL3108675, “Structure, absolute configuration, and antidiarrheal activity of a thymol derivative from Ageratina cylindrica” (J Nat Prod, 2014)
Structures can show the parent of a compound that is named as a salt.

Assays:
[1] = species: Rattus norvegicus; assay: Antidiarrheal activity in rat assessed as inhibition of charcoal-gum acacia-induced hyperperistalsis; format: functional; conditions: read-out: ID50 (the source's name)
[2] = tested on: Giardia intestinalis; assay: Antiprotozoal activity against Giardia lamblia IMSS:1090:1; format: functional, organism-based; conditions: Giardia duodenalis
[3] = tested on: Entamoeba histolytica; assay: Antiprotozoal activity against Entamoeba histolytica HM-1:IMSS; format: functional, organism-based

Compound | IC50 [2] [µM] | IC50 [3] [µM] | ED50 [1] [µmol/kg]
CC[C@H]1CN2CCc3cc(OC)c(OC)cc3[C@@H]2C[C@@H]1C[C@H]1NCCc2cc(OC)c(OC)cc21 [EMETINE] | 0.83 | – | –
CN(C)C(=O)C(CCN1CCC(O)(c2ccc(Cl)cc2)CC1)(c1ccccc1)c1ccccc1 [LOPERAMIDE HYDROCHLORIDE] | – | – | 0.2
Cc1ncc([N+](=O)[O-])n1CCO [METRONIDAZOLE] | – | 0.23 | –

Now from value to compound, other results behind:

IC50 [2] [µM] | IC50 [3] [µM] | Compound | ED50 [1] [µmol/kg]
167 | 185 | CC(C)C(=O)Oc1cc(C=O)c(O)cc1[C@@]1(COC(=O)c2ccccc2)CO1 | 0.85
117 | 226 | Oc1cc(O)c2c(c1)OC(c1ccc(O)c(O)c1)C(O)C2 (stereo not drawn) [CATECHIN] | –
